Data published in patent US20160340652A1, “CULTURE MEDIUM FOR STEM CELL DIFFERENTIATION” (The USA, as represented by the Secretary, Dept. of Health …, priority 2013, published 2016).

Assays:
hPSCs = assay: Cardiomyocyte differentiation in monolayer in E8 basal medium, CTNT/NKX2.5 flow cytometry and staining; assay type: cell-based, human; settings: for efficiencies of cardiac differentiation: different WNT inhibitors in the presence of heparin, CTNT FACS, 10 days
From the text: (§1) Cardiomyocyte differentiation in monolayer: When hPSCs had grown to 80-90% confluent, 2-3 days after plating, the medium was changed from E8 to differentiation basal medium, which contains E8 basal medium (DMEM F-12, L-ascorbic acid, Selenium, Transferrin, and NaHCO3), 1× Chemically Defined Lipid Concentrate (100×, Life Technologies, 11905-031; a commercially-available lipid mixture of Arachidonic Acid, Cholesterol, DL-α-Tocopherol Acetate, Ethyl Alcohol 100%, Linoleic Acid, Linolenic Acid, Myristic Acid, Oleic Acid, Palmitic Acid, Palmitoleic Acid, Pluronic F-68, Stearic Acid, Tween 80™) and 1× Pen Strep (Life Technologies, 15140-122). That day was defined as day 0. CHIR99021 (5 uM, Tocris, 4423) was added into differentiation basal medium at day 0 for 24 hrs. IWP2 (3 uM, Tocris, 3533) was added from day 2 to day 5. Heparin was added into the medium at indicated dosages and timeline. Insulin (20 ug/ml, Sigma, 19278) was added into differentiation basal medium to maintain cardiomyocytes from day 7 onward. The medium was changed daily until day 7, and then changed every 2-3 days from day 7 onward. The growth factors, inhibitors, and enzymes used in culture were: Activin A (10 ng/ml, R&D, 338-AC/CF), BMP4 (10 ng/ml, R&D, 314-BP/CF), FGF2 (100 ng/ml, Peprotech, 100-18B), TGFβ1 (1.74 ng/ml, R&D, 240-B/CF), Dorsomorphin (3 μM, Stemgent, 04-0024), LDN-193189 (0.1 μM, Stemgent, 04-0074), PD0325901 (1 μM, Stemgent, 04-0008), SB431542 (3 μM, Selleckchem, s1067), Heparin (Sigma, H3149), Heparinase I (New England Biolabs, P0735S).
Immunofluorecence staining: Cells cultured in monolayer were fixed in 2% PFA for 10 minutes at room temperature, washed with PBS and permeabilized with 0.2% Triton X-100/PBS for 3 minutes. After successive washes in PBS, the cells were blocked in 10 mg/ml BSA for 30 minutes and incubated with primary antibody for 1 hour at room temperature. Cells were then washed 3 times with PBS for 5 minutes and incubated with secondary antibodies (Alexa 488 or 594-conjugated) for 1 hour. DAPI was applied for nuclei staining. The following primary antibodies were used for immunofluorescence: alpha actinin (mouse, 1:1000, A7811, Sigma), CTNI (cardiac troponin I, rabbit, 1:200, sc-15368, Santa Cruz), CTNT (cardiac troponin T, mouse, CT3, 1:1000, DSHB), Desmin (mouse, 1:100, M0760, DaKo) NKX2.5 (rabbit, ab35842; 1:200, Abcam).
Flow cytometry assay: Cells differentiated for 10 days in monolayer were dissociated with TrypLE (Invitrogen) for 5 minutes. Single cells were washed off and suspended by DMEM/10% FBS followed by centrifugation. The pellets were washed by PBS once and fixed by 2% PFA for 5 minutes. After washing with PBS and centrifuging, permeabilization was performed by 0.3% Triton X-100 for 3 minutes. The cells were centrifuged and re-suspended with 1% BSA to block unspecific binding of antibody, followed by incubation with primary antibodies (diluted in 1% BSA) for 1 hour. After washed, the cells were incubated with second antibodies conjugated with FITC or PE (Invitrogen, 1:1000 diluted in PBS) for 30 minutes. The cells were washed once and suspended in PBS for the flow cytometry assay.
The inventors developed an E8 basal medium (consisting of E8 media without NaHCO3, insulin, bFGF, or TGFβ; i.e., containing DMEM/F-12, L-ascorbic acid, selenium, and transferrin). This E8 basal medium was used in a differentiation protocol for human H1 ESCs with initial WNT activation (using GSK3β inhibitor, CHIR99021) applied to the cells in culture at days 0-1 (i.e., days following initiation of the stem cell differentiation protocol; day 0 is the day on which the stem cell differentiation protocol begins when the previously plated cells reach at least 75% confluence and the specific cell culture media are applied to the cells to being the cardiomyocyte differentiation protocol, day 1 is the next day in which specific media may be applied to the cells, and day 2 is the following day, etc.). […]

[1] = tested on: Brachyury (T), Wnt3A, Axin2, KDR, GATA4; assay: Real-time PCR of stage-specific marker expression during cardiac differentiation; assay type: cell-based, human
Procedure: Real-time PCR: RNA was purified using TRI Reagent™ Solution according to Ambion's protocol. Residual DNA was removed using the TURBO DNA-Free™ kit. Reverse transcription was carried out with Maxima H Minus Reverse Transcriptase (Thermo Scientific) primed with Poly N15-mer (Eurofins) with the recommended protocol. Prior to PCR, RNA template was removed with addition of Ambion Ribonuclease H from E. coli. Real-time PCR was performed on the BIO-RAD CFX96 using SsoAdvanced™ Universal SYBR® Green Supermix. PCR primers were listed in the supplementary table.
To investigate the function of heparin in mesoderm determination and cardiac specification, stage-specific marker expression levels were measured by qPCR (FIG. 33).

H1 ESCs = assay: Live cell number yield after 10 days differentiation; assay type: cell-based, human; settings: WNT inhibitor in the presence of heparin
From the text: as §1, with “The growth factors, inhibitors, and enzymes used in culture were: Activin A (10 ng/ml, R&D, 338-AC/CF), BMP4 (10 ng/ml, R&D, 314-BP/CF), FGF2 (100 ng/ml, Peprotech, 100-18B), TGFβ1 (1.74 ng/ml, R&D, 240-B/CF), Dorsomorphin (3 μM, Stemgent, 04-0024), LDN-193189 (0.1 μM, Stemgent, 04-0074), PD0325901 (1 μM, Stemgent, 04-0008), SB431542 (3 μM, Selleckchem, s1067), Heparin (Sigma, H3149), Heparinase I (New England Biolabs, P0735S).” left out

Human ESCs = assay: High density survival screening of human ESCs in E8 medium with additives (Alkaline Phosphatase staining); assay type: cell-based; settings: for cell death and differentiation at high density: E8 medium supplemented, 5 days after initial confluence; for pluripotent stem cell survival and differentiation efficiency: E8 medium, cells near confluence, additives added, AP staining
Procedure: H1 hESCs were cultured in E8 media to 60% confluence, and then continually cultured for 2 days in E8 media with indiated additives. Alkaline Phosphatase (AP) staining was performed to show the pluripotent stem cells. Dark staining represents the survival of hESC colonies.
Additives are indicated (glycogen, glycogen+lipid+heparin). H1 and H9 hESCs were cultured in E8 media to 60% confluence, and then continually cultured for 2 days in E8 media with indicated additives. Two parallel experiments were performed in incubators in either good or bad condition.
FIGS. 6a and 6b show cell proliferation and spontaneous differentiation at high density with trehalose and CM-dextran. In FIG. 6a, HI hESCs were cultured in E8 media to >90 confluence, and then continually cultured for 5 days in E8 media with indicated additives. Phase contrast images show the survival rates of the cells. Note that most of the cells in control conditions died and few cells regrew, while Trehalose and CM-Dextran treated cells survived in high confluence but some of them started to differentiate. In FIG. 6b, qPCR of pluripotent and differentiated genes expression is shown for the samples in FIG. 6a.
First, initial screening assays were carried out with different additives. In this assay, human embryonic stem cells (ESCs) are grown to near confluence in E8 medium. The additives in the set of experiments described herein are selected from trehalose, CM-Dextran, lipid mix, heparin, glycogen and albumin. Cells that were untreated served as the controls. The protocol is set forth below:
1. Human ESCs were expanded with EDTA dissociation at 1:6 ratio.
2. E8 medium was changed every day.
3. After 2-3 days, when cell density reached around 70-80% confluency.
4. Change medium, and different treatments were applied to the cells in addition to fresh E8 every day.
5. Cells in E8 started to die 1-2 days after they reached 100% confluency.
6. Plates were stained with Alkaline Phosphatase staining (APS) kit (Vector Lab) to determine pluripotency maintenance. After a few days, the plates are stained with Alkaline Phosphatase Staining (APS). The cell viability reagent PrestoBlue can also be used to measure live cells. […]

[2] = tested on: cardiomyocyte differentiation; assay: Cell death/survival during cardiomyocyte differentiation in supplemented E8 medium (Test 1 and Test 3); assay type: cell-based, human; settings: Test 1 and Test 3, cell survival at day 3
From the text: Cell survival at day 3 is shown.

NKX2-5, TBX5 and TNNT2 = assay: qPCR of cardiac markers after Test 3 protocol differentiation; assay type: cell-based, human
Procedure: Expression of Nkx.2, TBX5 and cTnT are shown as determined by qPCR. qPCR was performed assess relative mRNA expression of cardiac markers for cells following Test3 protocol differentiation.
Gene expression during differentiation was examined, and it was shown that the new factors affected specific gene expression during differentiation.

## Cc1ccc2nc(NC(=O)CSc3nc4c(c(=O)n3-c3ccccc3)SCC4)sc2c1 [IWP2]
hPSCs; H1 ESCs, CHIR99021 days 0-1, IWP2 days 2-5, no heparin, no albumin or B27
  cardiomyocyte purity at day 10: ≤ 50%
hPSCs
  efficiencies of cardiac differentiation: comparable efficiencies of cardiac differentiation
hPSCs; increasing IWP2 dosage, without heparin
  cardiac differentiation (CTNT and NKX2.5 staining): did not significantly enhance cardiac differentiation
[1]; all 5 hPSC lines
  Axin2 expression at day 5: inhibited
[1]; qPCR, day 5, 7 different human PSC lines
  expression of cardiac progenitor marker GATA4: promoted

## O=C(Nc1cccc2cccnc12)c1ccc(N2C(=O)[C@@H]3[C@H](C2=O)[C@@H]2C=C[C@H]3C2)cc1 [IWR1]
H1 ESCs
  cell death and cardiomyocyte yield: caused more cell death and yielded fewer cardiomyocytes
hPSCs
  efficiencies of cardiac differentiation: comparable efficiencies of cardiac differentiation

## Oc1nc(-c2ccc(C(F)(F)F)cc2)nc2c1CSCC2 [XAV939]
hPSCs
  efficiencies of cardiac differentiation: comparable efficiencies of cardiac differentiation

## OC[C@H]1O[C@H](O[C@H]2O[C@H](CO)[C@@H](O)[C@H](O)[C@H]2O)[C@H](O)[C@@H](O)[C@@H]1O [trehalose, Trehalose]
Human ESCs
  cell death and differentiation at high density: little cell death, and the cells differentiated
  pluripotent stem cell survival and differentiation efficiency: enhanced pluripotent stem cell survival and differentiation efficiency
[2]
  cell death during differentiation: suppressed cell death during differentiation
NKX2-5, TBX5 and TNNT2
  cardiomyocyte differentiation by mRNA expression of NKX2-5, TBX5 and TNNT2: promoted cardiomyocyte differentiation

## CM-dextran
Human ESCs
  cell death and differentiation at high density: little cell death, and the cells differentiated
  pluripotent stem cell survival and differentiation efficiency: enhanced pluripotent stem cell survival and differentiation efficiency
[2]
  cell death during differentiation: suppressed cell death during differentiation
NKX2-5, TBX5 and TNNT2
  cardiomyocyte differentiation by mRNA expression of NKX2-5, TBX5 and TNNT2: promoted cardiomyocyte differentiation

B1: heparinase I: bacteroides enzyme that selectively cleaves the glycosidic linkage between hexosamines and uronic acids in heparin (protein, UniProt Q05819 22-384, looked up)
Heparin lyase I: QQKKSGNIPYRVNVQADSAKQKAIIDNKWVAVGINKPYALQYDDKLRFNGKPSYRFELKAEDNSLEGYAAGETKGRTELSYSYATTNDFKKFPPSVYQNAQKLKTVYHYGKGICEQGSSRSYTFSVYIPSSFPDNATTIFAQWHGAPSRTLVATPEGEIKTLSIEEFLALYDRMIFKKNIAHDKVEKKDKDGKITYVAGKPNGWKVEQGGYPTLAFGFSKGYFYIKANSDRQWLTDKADRNNANPENSEVMKPYSSEYKTSTIAYKMPFAQFPKDCWITFDVAIDWTKYGKEANTILKPGKLDVMMTYTKNKKPQKAHIVNQQEILIGRNDDDGYYFKFGIYRVGNSTVPVTYNLSGYSETAR
hPSCs; co-treatment with heparinase I and heparin
  effect of heparin in the promotion of cardiac differentiation: dramatically blocked
hPSCs; heparinase I with IWP2
  cardiac cell differentiation seen with IWP2 treatment: significantly suppressed
